{"source": "patent US4801444A", "about": "“Medicinal preparation for individual prevention of venereal diseases and treatment of urogenital trichomoniasis” (Poltavsky Meditsinsky Stomatologichesky Institut, priority 1988, dated 1989)", "origin": "cited, not measured here", "key": {"[1]": {"test_system": "urogenital trichomoniasis"}, "[2]": {"test_system": "venereal diseases", "details": "0.05-0.1 percent solution"}, "[3]": {"test_system": "venereal diseases", "details": "0.05-0.1 percent solution", "remark": "listed apart in the source"}, "[4]": {"details": "0.05-0.1 percent solution, clinical application"}, "[5]": {"test_system": "trichomonads", "details": "imidazole medicines, clinical use"}}, "note": "Where two headings read alike, the source gives them in different places."}
{"smiles": "CC(=O)Nc1cc([As](=O)(O)O)ccc1O", "note": "[Acetarsol]", "values": [{"measurement": "efficacy in topical treatment of urogenital trichomoniasis", "setting": "[1]; topical (external)", "result": "insufficiently efficacious"}]}
{"smiles": "[H]/N=C(\\N/C(=N/[H])NCCCCCCNC(=N)NC(=N)Nc1ccc(Cl)cc1)Nc1ccc(Cl)cc1", "note": "[Chlorhexidine]", "values": [{"measurement": "bactericidal activity in vitro", "setting": "[2]", "result": "adequate bactericidal activity"}, {"measurement": "bactericidal activity in tests on animals", "setting": "[3]", "result": "adequate bactericidal activity"}, {"measurement": "effect upon skin and genital mucosa in man", "setting": "[4]", "result": "irritating and withering effect upon the skin and genital mucosa"}]}
{"smiles": "Cc1ncc([N+](=O)[O-])n1CCO", "note": "[Metronidazole]", "values": [{"measurement": "relapsing of a specific process", "setting": "[5]", "result": "up to 8.4% of all cases"}]}
{"smiles": "CCS(=O)(=O)CCn1c([N+](=O)[O-])cnc1C", "note": "[Tinidazole]", "values": [{"measurement": "relapsing of a specific process", "setting": "[5]", "result": "up to 8.4% of all cases"}]}
{"smiles": "OB(O)O", "note": "[boric acid]", "values": [{"measurement": "efficacy in topical treatment of urogenital trichomoniasis", "setting": "[1]; in vivo", "result": "insufficiently efficacious"}]}
{"smiles": "O=S(=O)([O-])[O-].[Cu+2]", "note": "[copper sulphate]", "values": [{"measurement": "efficacy in topical treatment of urogenital trichomoniasis", "setting": "[1]; topical (external)", "result": "insufficiently efficacious"}]}
{"smiles": "O=C(N[C@H](CO)[C@H](O)c1ccc([N+](=O)[O-])cc1)C(Cl)Cl", "note": "[laevomycetin]", "values": [{"measurement": "efficacy in topical treatment of urogenital trichomoniasis", "setting": "[1]; topical (external)", "result": "insufficiently efficacious"}]}
{"smiles": "O=[N+]([O-])[O-].[Ag+]", "note": "[lapis]", "values": [{"measurement": "efficacy in topical treatment of urogenital trichomoniasis", "setting": "[1]; topical (external)", "result": "insufficiently efficacious"}]}
{"smiles": "O=S(=O)([O-])[O-].[Zn+2]", "note": "[zinc sulphate]", "values": [{"measurement": "efficacy in topical treatment of urogenital trichomoniasis", "setting": "[1]; topical (external)", "result": "insufficiently efficacious"}]}
